PubChem BioAssay (NCI)
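The compound was tested at five concentrations on cells cultured in 96-well plates, with a 48-hour exposure period. The concentration for 50% growth inhibition is given as GI50. The concentration for full growth arrest is given as TGI.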

Legend:
Experiment in all cases: growth of human tumour cells (NCI), 48 h
[1] = system: 786-0 renal
[2] = system: A498 renal
[3] = system: A549 NSCLC
[4] = system: ACHN renal
[5] = system: BT-549 breast
[6] = system: CAKI-1 renal
[7] = system: CCRF-CEM leukemia
[8] = system: COLO 205 colon
[9] = system: DU-145 prostate
[10] = system: EKVX NSCLC
[11] = system: HCC-2998 colon
[12] = system: HCT-116 colon
[13] = system: HCT-15 colon
[14] = system: HL-60(TB) leukemia
[15] = system: HOP-62 NSCLC
[16] = system: HOP-92 NSCLC
[17] = system: HS 578T breast
[18] = system: HT29 colon
[19] = system: IGROV1 ovarian
[20] = system: K-562 leukemia
[21] = system: KM12 colon
[22] = system: LOX IMVI melanoma
[23] = system: M14 melanoma
[24] = system: MALME-3M melanoma
[25] = system: MCF7 breast
[26] = system: MDA-MB-231 breast
[27] = system: MDA-MB-435
[28] = system: MOLT-4 leukemia
[29] = system: NCI-H226 lung
[30] = system: NCI-H23 lung
[31] = system: NCI-H460 lung
[32] = system: NCI-H522 lung
[33] = system: NCI/ADR-RES ovarian
[34] = system: OVCAR-3 ovarian
[35] = system: OVCAR-4 ovarian
[36] = system: OVCAR-5 ovarian
[37] = system: OVCAR-8 ovarian
[38] = system: PC-3 prostate
[39] = system: RPMI-8226 leukemia
[40] = system: SF-268 CNS
[41] = system: SF-295 CNS
[42] = system: SF-539 CNS
[43] = system: SK-MEL-2 melanoma
[44] = system: SK-MEL-28 melanoma
[45] = system: SK-MEL-5 melanoma
[46] = system: SK-OV-3 ovarian
[47] = system: SN12C renal
[48] = system: SNB-19 CNS
[49] = system: SNB-75 CNS
[50] = system: SR leukemia
[51] = system: SW-620 colon
[52] = system: T-47D breast
[53] = system: TK-10 renal
[54] = system: U251 CNS
[55] = system: UACC-257 melanoma
[56] = system: UACC-62 melanoma
[57] = system: UO-31 renal

## OCCCCC#Cc1ccccc1C#Cc1ccc(C(F)(F)F)cc1
[1]
  GI50: 4.72 µM
  TGI: 18.1 µM
[2]
  GI50: 15 µM
  TGI: 28.6 µM
[3]
  GI50: 14.3 µM
  TGI: 27.6 µM
[4]
  GI50: 17.5 µM
  TGI: 31.2 µM
[5]
  GI50: 18 µM
  TGI: 35.1 µM
[6]
  GI50: 18.6 µM
  TGI: 33.8 µM
[7]
  GI50: 19.6 µM
  TGI: 44.1 µM
[8]
  GI50: 17.4 µM
  TGI: 33 µM
[9]
  GI50: 15.8 µM
  TGI: 31.7 µM
[10]
  GI50: 18.4 µM
  TGI: 35.9 µM
[11]
  GI50: 17.1 µM
  TGI: 32 µM
[12]
  GI50: 16.9 µM
  TGI: 35.8 µM
[13]
  GI50: 12.5 µM
  TGI: 25.4 µM
[14]
  GI50: 17.7 µM
  TGI: 38.8 µM
[15]
  GI50: 11.4 µM
  TGI: 24.3 µM
[16]
  GI50: 18 µM
  TGI: 34.9 µM
[17]
  GI50: 26.3 µM
  TGI: 65.9 µM
[18]
  GI50: 3.43 µM
  TGI: 18.1 µM
[19]
  GI50: 17.6 µM
  TGI: 32 µM
[20]
  GI50: 18.2 µM
  TGI: 43.6 µM
[21]
  GI50: 13.9 µM
  TGI: 29.8 µM
[22]
  GI50: 17.1 µM
  TGI: 31.5 µM
[23]
  GI50: 17.1 µM
  TGI: 38.3 µM
[24]
  GI50: 19.7 µM
  TGI: 35.5 µM
[25]
  GI50: 33.3 µM
  TGI: 85.6 µM
[26]
  GI50: 18.6 µM
  TGI: 34 µM
[27]
  GI50: 16.3 µM
  TGI: 31.8 µM
[28]
  GI50: 13.6 µM
  TGI: 31.4 µM
[29]
  GI50: 18.7 µM
  TGI: 34.1 µM
[30]
  GI50: 16.8 µM
  TGI: 32.4 µM
[31]
  GI50: 23.3 µM
  TGI: 60.3 µM
[32]
  GI50: 16.4 µM
  TGI: 32 µM
[33]
  GI50: 15 µM
  TGI: 30.7 µM
[34]
  GI50: 17.8 µM
  TGI: 32.6 µM
[35]
  GI50: 11.2 µM
  TGI: 23.9 µM
[36]
  GI50: 16.9 µM
  TGI: 31.8 µM
[37]
  GI50: 17.4 µM
  TGI: 33.2 µM
[38]
  GI50: 17.5 µM
  TGI: 35 µM
[39]
  GI50: 19.9 µM
  TGI: 48.8 µM
[40]
  GI50: 22 µM
  TGI: 48 µM
[41]
  GI50: 19.1 µM
  TGI: 34.5 µM
[42]
  GI50: 19.7 µM
  TGI: 37.2 µM
[43]
  GI50: 16 µM
  TGI: 33.9 µM
[44]
  GI50: 8.4 µM
  TGI: 21.7 µM
[45]
  GI50: 17.8 µM
  TGI: 33.3 µM
[46]
  GI50: 18.5 µM
  TGI: 34 µM
[47]
  GI50: 15.8 µM
  TGI: 29.6 µM
[48]
  GI50: 17.3 µM
  TGI: 32.3 µM
[49]
  GI50: 15.8 µM
  TGI: 30.2 µM
[50]
  GI50: 0.693 µM
  TGI: 31.8 µM
[51]
  GI50: 17 µM
  TGI: 35.2 µM
[52]
  GI50: 15.9 µM
  TGI: 33.9 µM
[53]
  GI50: 11.9 µM
  TGI: 25.3 µM
[54]
  GI50: 14.8 µM
  TGI: 28.6 µM
[55]
  GI50: 14.9 µM
  TGI: 28.2 µM
[56]
  GI50: 16 µM
  TGI: 29.8 µM
[57]
  GI50: 16.3 µM
  TGI: 30.3 µM
